Assay results from patent US7550495B2 (priority 2004, dated 2009).
Converted amounts (≈) assume the structure as drawn.

How the values were obtained:
[1] = Assay condition for measuring solubility; assay type: physicochemical; details: for solubility at 24 h: thermodynamic from solid, aqueous, sodium phosphate buffer pH 7.4, 24 h, 25° C.
Experimental: A 30 mM DMSO stock is prepared of the sample and then a 25 μL aliquot is added to a 96-well plate and genevac at 40° C. for 4 hours. To the genevac compound add 250 μL of sodium phosphate buffer (pH 7.4) and then mix at 1200 rpm for 24 h using an Eppendorf Thermomixer at 25° C. After mixing solution is transferred to a 96-well Whatman GF/B filter plate and then filtered under vacuum. The supernatant is then injected onto the LC/MS for analysis and quantitation is performed using a 1-point calibration for the compound of interest.

[2] = Metabolic stability assay in human liver microsomes; assay type: in vitro ADME
Experimental: (§1) A solution of 500 μl of 100 μM compound in DMSO is incubated with human or rat liver microsomes (843 μl of microsomes of 0.5618 mg/mL in 30 ml 0.1 M KH2PO4 buffer pH7.4) at 37° C. for 10 min in a 96-deep well plate. NADPH (46 μL) at a concentration of 8.33 mg/ml in 100 mM KH2PO4 buffer pH 7.4 is added to start the reaction. The reaction mixtures are transferred to a 384-well plate containing acetonitrile to quench the reaction at time 0, 10, 20, 30 minutes. The 384 well plate is centrifuged for 30 min at 9000 g, at 4° C., from which samples are analyzed by LC/MS (model: XDB Eclipse C18). Three references are analyzed by LC/MS as a positive control. Data are processed following a standard procedure. The metabolic stability of assayed compounds is expressed as μL/min/mg

[3] = Metabolic stability assay in rat liver microsomes; assay type: in vitro ADME; details: pH 7.4, 37° C., read-out: rCLint
Experimental: as §1

Human CB1 receptor [4] = molecular target: T1, Human CB1 receptor (Homo sapiens, UniProt P21554); experiment: hCB1 receptor binding (3H-CP55,940 displacement); details: Ki=IC50/(1+[rad]/Kd)
T1 construct: purchased Receptor Biology
Experimental: Human CB1 receptor from Receptor Biology (hCB1) or human CB2 receptor from BioSignal (hCB2) membranes are thawed at 37° C., passed 3 times through a 25-gauge blunt-end needle, diluted in the cannabinoid binding buffer (50 mM Tris, 2.5 mM EDTA, 5 mM MgCl2, and 0.5 mg/mL BSA fatty acid free, pH 7.4) and aliquots containing the appropriate amount of protein are distributed in 96-well plates. The IC50 of the compounds of the invention at hCB1 and hCB2 are evaluated from 10-point dose-response curves done with ^3H-CP55,940 at 20000 to 25000 dpm per well (0.17-0.21 nM) in a final volume of 300 μl. The total and non-specific binding are determined in the absence and presence of 0.2 μM of HU210 respectively. The plates are vortexed and incubated for 60 minutes at room temperature, filtered through Unifilters GF/B (presoaked in 0.1% polyethyleneimine) with the Tomtec or Packard harvester using 3 mL of wash buffer (50 mM Tris, 5 mM MgCl2, 0.5 mg BSA pH 7.0). The filters are dried for 1 hour at 55° C. The radioactivity (cpm) is counted in a TopCount (Packard) after adding 65 μl/well of MS-20 scintillation liquid.
Based on the above assays, the dissociation constant (Ki) for a particular compound of the invention towards a particular receptor is determined using the following equation: Ki=IC50/(1+[rad]/Kd), […]

Human CB1 receptor [5] = molecular target: T1, Human CB1 receptor; experiment: hCB1 GTPγS binding; assay type: biochemical
Experimental: Human CB1 receptor from Receptor Biology (hCB1) or human CB2 receptor membranes (BioSignal) are thawed at 37° C., passed 3 times through a 25-gauge blunt-end needle and diluted in the GTPγS binding buffer (50 mM Hepes, 20 mM NaOH, 100 mM NaCl, 1 mM EDTA, 5 mM MgCl2, pH 7.4, 0.1% BSA). The EC50 and Emax of the compounds of the invention are evaluated from 10-point dose-response curves done in 300 μl with the appropriate amount of membrane protein and 100000-130000 dpm of GTPg^35S per well (0.11-0.14 nM). The basal and maximal stimulated binding is determined in absence and presence of 1 μM (hCB2) or 10 μM (hCB1) Win 55,212-2 respectively. The membranes are pre-incubated for 5 minutes with 56.25 μM (hCB2) or 112.5 μM (hCB1) GDP prior to distribution in plates (15 μM (hCB2) or 30 μM (hCB1) GDP final). The plates are vortexed and incubated for 60 minutes at room temperature, filtered on Unifilters GF/B (presoaked in water) with the Tomtec or Packard harvester using 3 ml of wash buffer (50 mM Tris, 5 mM MgCl2, 50 mM NaCl, pH 7.0). The filters are dried for 1 hour at 55° C. The radioactivity (cpm) is counted in a TopCount (Packard) after adding 65 μl/well of MS-20 scintillation liquid. […]

[6] = pH 7.4, 37° C., read-out: hCLint

T1 sequence (P21554 whole entry): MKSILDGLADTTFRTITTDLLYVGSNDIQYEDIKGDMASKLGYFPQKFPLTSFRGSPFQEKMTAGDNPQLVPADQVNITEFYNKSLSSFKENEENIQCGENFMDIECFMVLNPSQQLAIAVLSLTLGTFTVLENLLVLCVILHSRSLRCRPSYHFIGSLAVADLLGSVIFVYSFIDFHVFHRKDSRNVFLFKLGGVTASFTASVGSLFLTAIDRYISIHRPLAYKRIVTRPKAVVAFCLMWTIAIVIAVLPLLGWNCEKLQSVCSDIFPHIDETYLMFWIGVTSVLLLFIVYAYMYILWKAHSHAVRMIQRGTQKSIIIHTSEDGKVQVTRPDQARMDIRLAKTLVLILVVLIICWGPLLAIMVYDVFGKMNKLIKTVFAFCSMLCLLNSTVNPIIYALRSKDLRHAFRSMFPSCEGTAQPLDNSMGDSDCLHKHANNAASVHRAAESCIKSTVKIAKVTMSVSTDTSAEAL

Structure (SMILES)	solubility at 24 h [1]	microsomal CLint at 1.6 µM [2, 6]	microsomal CLint at 1.6 µM [3]	also measured
CCCS(=O)(=O)Nc1ccc2c(c1)nc(C(C)(C)C)n2CC1CCC(F)(F)CC1	3.79 µM (≈ 1.62 µg/mL)	10.7 µL/min/mg	8.04 µL/min/mg	–
CCS(=O)(=O)Nc1ccc2c(c1)nc(C(C)(C)C)n2CC1CCC(F)(F)CC1	7.36 µM (≈ 3.04 µg/mL)	5.76 µL/min/mg	11.7 µL/min/mg	–
CC(C)(C)c1nc2cc(NS(C)(=O)=O)ccc2n1CC1CCC(F)(F)CC1	4.3 µM (≈ 1.72 µg/mL)	7.41 µL/min/mg	23.4 µL/min/mg	–
CC(C)(C)c1nc2cc(NS(=O)(=O)C3CC3)ccc2n1CC1CCC(F)(F)CC1	5.93 µM (≈ 2.52 µg/mL)	7.77 µL/min/mg	10.2 µL/min/mg	–
CC(F)(F)c1nc2cc(NS(=O)(=O)C3CC3)ccc2n1CC1CCC(F)(F)CC1	51.9 µM (≈ 22.5 µg/mL)	5.27 µL/min/mg	< 4 µL/min/mg	–
CCS(=O)(=O)Nc1ccc2c(c1)nc(C(C)(C)C)n2CC1CCC(F)CC1 (centres unmarked)	353 µM (≈ 140 µg/mL)	5.72 µL/min/mg	62.6 µL/min/mg	–
CC(C)(C)c1nc2cc(NS(=O)(=O)C(C)(C)C)ccc2n1CC1CCC(F)(F)CC1	0.61 µM (≈ 0.269 µg/mL)	8.03 µL/min/mg	15.4 µL/min/mg	–
CC(F)(F)c1nc2cc(NS(=O)(=O)C(C)(C)C)ccc2n1CC1CCC(F)(F)CC1	0.51 µM (≈ 0.229 µg/mL)	< 4 µL/min/mg	6.87 µL/min/mg	–
CC(C)(C)c1nc2cc(NS(=O)(=O)C3CC3)ccc2n1CC1CCC(F)CC1 (centres unmarked)	233 µM (≈ 95 µg/mL)	< 4 µL/min/mg	–	–
CC(C)(C)c1nc2cc(NS(=O)(=O)C(C)(C)C)ccc2n1CC1CCC(F)CC1 (centres unmarked)	154 µM (≈ 65.3 µg/mL)	11.5 µL/min/mg	–	–
CCS(=O)(=O)Nc1ccc2c(c1)nc(C(C)(C)C)n2CC1CCC(F)CC1 (single isomer, unassigned) [Isomer A, N-{2-tert-Butyl-1-[(4-fluorocyclohexyl)methyl]-1H-benzimidazol-5-yl}ethanesulfonamide (isomers)]	–	–	–	Sol. pH 7.4 ([1]; listed as A): 64 μM; Ki (Human CB1 receptor [4]): 148 nM
CCS(=O)(=O)Nc1ccc2c(c1)nc(C(C)(C)C)n2CC1CCC(F)CC1 (single isomer, unassigned) [Isomer B, N-{2-tert-Butyl-1-[(4-fluorocyclohexyl)methyl]-1H-benzimidazol-5-yl}ethanesulfonamide (isomers)]	–	–	–	Sol. pH 7.4 ([1]; listed as B): 381 μM; Ki (Human CB1 receptor [4]): 14.8 nM; microsomal CLint at 1.6 µM ([2]; pH 7.4, read-out: hClint): 7.7 µL/min/mg; EC50 (Human CB1 receptor [5]): 4.9 nM; Emax (Human CB1 receptor [5]; maximal stimulation with 10 μM Win 55,212-2): 103%
